{
  "source": "patent US20030147861A1",
  "about": "“Compounds and methods for the modulation of immune responses” (Genesis Research and Development Corporation Limited, priority 2001, published 2003)",
  "test_system": "TLR2, TLR4 and CD14 on THP-1 cells (IL-12p40, TNFα, IL-10 production)",
  "experiment": "Cytokine production by THP-1 cells pre-treated with mAbs to TLR2, TLR4 or CD14 and cultured with M. vaccae derivatives (ELISA)",
  "format": "cell-based, human",
  "conditions": "mAb pre-treatment 60 minutes, 0.32-1000 μg/mL; stimulus 5 μg/mL, 24 hours",
  "protocol": "In subsequent experiments, the effect of antibodies to TLR2, TLR4 and CD14 on the production of IL-12p40, IL-10 and TNF-α in THP-1 cells in response to M. vaccae derivatives was examined as follows.\nPrior to culture with M. vaccae derivatives, 50 μL of THP-1 cells in cRPMI-10 were pre-treated in duplicate microplate wells with 50 μL of serially diluted Functional Grade mabs to human TLR2 (clone TL2.1, IgG2a isotype, eBioscience cat. no. 16-9922-82), TLR4 (clone HTA125, IgG2a isotype, eBioscience cat. no. 16-9927-82), or CD14 (clone RM052, IgG2a isotype, Coulter cat. no. IM0643), with a cocktail of all three antibodies or with control mAb (clone AcV1, IgG2a isotype, eBioscience cat. no. 16-4724-85), with each mAb used at a final concentration of 1000 μg/mL, 200 μg/mL, 40 μg/mL, 8.0 μg/mL, 1.60 μg/mL, or 0.32 μg/mL, or with no mAb. Pretreatment of cells with mAbs was for 60 minutes in a water-jacketed, humidified incubator at 37° C. supplied with 5% CO2 in air.\nAt the end of the 24-hour incubation period, the microplates were centrifuged at 200×g for 5 minutes and the supernatants collected and transferred to a sterile 96-well round-bottom plate.\nIL-12p40, TNFα, and IL-10 content in the microculture supernatants was determined by sandwich ELISA using commercially available sets according to the manufacturer's recommendations. […]",
  "data": [
    {"substance": "TLR2 mAb: Functional Grade mAb to human TLR2, clone TL2.1, IgG2a isotype (eBioscience) [reference compound]", "values": [
      {"measurement": "inhibition of M. vaccae-, AVAC- and DD-M. vaccae-induced production of IL-12p40 by THP-1 cells", "result": "inhibited by TLR2 and CD14 mAbs in a dose-dependent fashion"}
    ]}
  ]
}
